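All cell lines were grown in 96-well plates and treated with compound for 48 hours. GI50 = concentration required for 50% inhibition of growth.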 The source made the active and inactive calls. No stated cut-off is given here; in the data, active = GI50 up to about 1.1 µM and inactive = higher.
Key:
Test in all cases: DTP human tumour cell line panel, 48 h
NCI-H460 = tested on: NCI-H460
UACC-257 = tested on: UACC-257
BT-549 = tested on: BT-549
ACHN = tested on: ACHN
SK-MEL-2 = tested on: SK-MEL-2
OVCAR-5 = tested on: OVCAR-5
HL-60 = tested on: HL-60
SK-MEL-28 = tested on: SK-MEL-28
T47D = tested on: T47D
HOP-62 = tested on: HOP-62
K562 = tested on: K562
DU-145 = tested on: DU-145
NCI-H226 = tested on: NCI-H226
HCT-116 = tested on: HCT-116
HCT-15 = tested on: HCT-15
A549 = tested on: A549
KM12 = tested on: KM12
SN12C = tested on: SN12C
PC-3 = tested on: PC-3
MCF7 = tested on: MCF7
SK-OV-3 = tested on: SK-OV-3
Hs-578T = tested on: Hs-578T
CAKI-1 = tested on: CAKI-1
EKVX = tested on: EKVX
786-0 = tested on: 786-0
SF-539 = tested on: SF-539
MDA-MB-231 = tested on: MDA-MB-231
NCI/ADR-RES = tested on: NCI/ADR-RES
SK-MEL-5 = tested on: SK-MEL-5
NCI-H23 = tested on: NCI-H23
NCI-H522 = tested on: NCI-H522
OVCAR-3 = tested on: OVCAR-3
TK-10 = tested on: TK-10
MOLT-4 = tested on: MOLT-4
RXF 393 = tested on: RXF 393
SR = tested on: SR
OVCAR-8 = tested on: OVCAR-8
UO-31 = tested on: UO-31
UACC-62 = tested on: UACC-62
A498 = tested on: A498
U-251 = tested on: U-251
HOP-92 = tested on: HOP-92
RPMI-8226 = tested on: RPMI-8226
IGROV-1 = tested on: IGROV-1
SF-295 = tested on: SF-295
SNB-75 = tested on: SNB-75
COLO 205 = tested on: COLO 205
SF-268 = tested on: SF-268
MDA-N = tested on: MDA-N
LOX IMVI = tested on: LOX IMVI
MDA-MB-435 = tested on: MDA-MB-435
HT-29 = tested on: HT-29
OVCAR-4 = tested on: OVCAR-4
SNB-19 = tested on: SNB-19
SW-620 = tested on: SW-620
CCRF-CEM = tested on: CCRF-CEM
M14 = tested on: M14
Malme-3M = tested on: Malme-3M
HCC 2998 = tested on: HCC 2998

For CN1CCN2CCN(C)CCN(CC1)CC2, the GI50 (NCI-H460) was > 100 µM (inactive), the GI50 (UACC-257) was > 100 µM (inactive) and the GI50 (BT-549) was > 100 µM (inactive). The GI50 (ACHN) was > 100 µM (inactive), the GI50 (SK-MEL-2) was > 100 µM (inactive) and the GI50 (OVCAR-5) was > 100 µM (inactive). The GI50 (HL-60) was > 100 µM (inactive), the GI50 (SK-MEL-28) was > 100 µM (inactive) and the GI50 (T47D) was > 100 µM (inactive). For the same molecule, the GI50 (HOP-62) was > 100 µM (inactive), the GI50 (K562) was > 100 µM (inactive) and the GI50 (DU-145) was > 100 µM (inactive). For the same molecule, the GI50 (NCI-H226) was > 100 µM (inactive), the GI50 (HCT-116) was > 100 µM (inactive) and the GI50 (HCT-15) was > 100 µM. The GI50 (A549) was > 100 µM (inactive), the GI50 (KM12) was > 100 µM (inactive) and the GI50 (SN12C) was > 100 µM (inactive). The GI50 (PC-3) was > 100 µM (inactive), the GI50 (MCF7) was > 100 µM (inactive) and the GI50 (SK-OV-3) was > 100 µM (inactive). The GI50 (Hs-578T) was > 100 µM (inactive), the GI50 (CAKI-1) was > 100 µM (inactive) and the GI50 (EKVX) was > 100 µM (inactive). The GI50 (786-0) was > 100 µM (inactive), the GI50 (SF-539) was > 100 µM (inactive) and the GI50 (MDA-MB-231) was > 100 µM (inactive). The GI50 (NCI/ADR-RES) was > 100 µM (inactive), the GI50 (SK-MEL-5) was > 100 µM (inactive) and the GI50 (NCI-H23) was > 100 µM (inactive). For the same molecule, the GI50 (NCI-H522) was > 100 µM (inactive), the GI50 (OVCAR-3) was > 100 µM (inactive) and the GI50 (TK-10) was > 100 µM (inactive). For the same molecule, the GI50 (MOLT-4) was > 100 µM (inactive), the GI50 (RXF 393) was > 100 µM (inactive) and the GI50 (SR) was > 100 µM (inactive). The GI50 (OVCAR-8) was > 100 µM (inactive), the GI50 (UO-31) was > 100 µM (inactive) and the GI50 (UACC-62) was > 100 µM (inactive). For the same molecule, the GI50 (A498) was > 100 µM (inactive), the GI50 (U-251) was > 100 µM (inactive) and the GI50 (HOP-92) was > 100 µM (inactive). For the same molecule, the GI50 (RPMI-8226) was > 100 µM (inactive), the GI50 (IGROV-1) was > 100 µM (inactive) and the GI50 (SF-295) was > 100 µM (inactive). For the same molecule, the GI50 (SNB-75) was > 100 µM (inactive), the GI50 (COLO 205) was > 100 µM (inactive) and the GI50 (SF-268) was > 100 µM (inactive). For the same molecule, the GI50 (MDA-N) was > 100 µM (inactive), the GI50 (LOX IMVI) was > 100 µM (inactive) and the GI50 (MDA-MB-435) was > 100 µM (inactive). For the same molecule, the GI50 (HT-29) was > 100 µM (inactive), the GI50 (OVCAR-4) was > 100 µM (inactive) and the GI50 (SNB-19) was > 100 µM (inactive). For the same molecule, the GI50 (SW-620) was > 100 µM (inactive), the GI50 (CCRF-CEM) was > 100 µM (inactive) and the GI50 (M14) was > 100 µM (inactive).
COC(OC)C1OC(CO)C(n2ccc(N)nc2=O)C1O (stereo not drawn) was tested, and the GI50 (NCI-H460) was > 100 µM (inactive), the GI50 (UACC-257) was > 100 µM (inactive) and the GI50 (BT-549) was > 100 µM (inactive). For the same molecule, the GI50 (ACHN) was > 100 µM (inactive), the GI50 (Malme-3M) was > 100 µM (inactive) and the GI50 (SK-MEL-2) was > 100 µM (inactive). For the same molecule, the GI50 (OVCAR-5) was > 100 µM (inactive), the GI50 (SK-MEL-28) was > 100 µM (inactive) and the GI50 (T47D) was > 100 µM (inactive). The GI50 (HOP-62) was > 100 µM (inactive), the GI50 (K562) was > 100 µM (inactive) and the GI50 (DU-145) was > 100 µM (inactive). For the same molecule, the GI50 (NCI-H226) was > 100 µM (inactive), the GI50 (HCT-116) was > 100 µM (inactive) and the GI50 (HCT-15) was > 100 µM. The GI50 (A549) was > 100 µM (inactive), the GI50 (KM12) was > 100 µM (inactive) and the GI50 (SN12C) was > 100 µM (inactive). For the same molecule, the GI50 (PC-3) was > 100 µM (inactive), the GI50 (HCC 2998) was > 100 µM (inactive) and the GI50 (MCF7) was > 100 µM (inactive). The GI50 (SK-OV-3) was > 100 µM (inactive), the GI50 (Hs-578T) was > 100 µM (inactive) and the GI50 (CAKI-1) was > 100 µM (inactive). For the same molecule, the GI50 (EKVX) was > 100 µM (inactive), the GI50 (786-0) was > 100 µM (inactive) and the GI50 (SF-539) was > 100 µM (inactive). The GI50 (MDA-MB-231) was > 100 µM (inactive), the GI50 (NCI/ADR-RES) was > 100 µM (inactive) and the GI50 (SK-MEL-5) was > 100 µM (inactive). For the same molecule, the GI50 (NCI-H23) was > 100 µM (inactive), the GI50 (NCI-H522) was > 100 µM (inactive) and the GI50 (OVCAR-3) was > 100 µM (inactive). For the same molecule, the GI50 (TK-10) was > 100 µM (inactive), the GI50 (MOLT-4) was > 100 µM (inactive) and the GI50 (RXF 393) was > 100 µM (inactive). The GI50 (SR) was > 100 µM (inactive), the GI50 (OVCAR-8) was > 100 µM (inactive) and the GI50 (UO-31) was > 100 µM (inactive). For the same molecule, the GI50 (UACC-62) was > 100 µM (inactive), the GI50 (A498) was > 100 µM (inactive) and the GI50 (U-251) was > 100 µM (inactive). For the same molecule, the GI50 (HOP-92) was > 100 µM (inactive), the GI50 (RPMI-8226) was > 100 µM (inactive) and the GI50 (IGROV-1) was > 100 µM (inactive). The GI50 (SF-295) was > 100 µM (inactive), the GI50 (SNB-75) was > 100 µM (inactive) and the GI50 (COLO 205) was > 100 µM (inactive). The GI50 (SF-268) was > 100 µM (inactive), the GI50 (MDA-N) was > 100 µM (inactive) and the GI50 (LOX IMVI) was > 100 µM (inactive). The GI50 (MDA-MB-435) was > 100 µM (inactive), the GI50 (HT-29) was > 100 µM (inactive) and the GI50 (OVCAR-4) was > 100 µM (inactive). For the same molecule, the GI50 (SNB-19) was > 100 µM (inactive), the GI50 (SW-620) was > 100 µM (inactive) and the GI50 (CCRF-CEM) was > 100 µM (inactive). For the same molecule, the GI50 (M14) was > 100 µM (inactive).
In the case of c1ccc(N/N=C2\CC(c3ccccc3)Oc3ccccc32)cc1 (stereo not drawn), the GI50 (NCI-H460) is reported as 45 µM (inactive), the GI50 (UACC-257) is reported as 69.3 µM (inactive) and the GI50 (BT-549) is reported as 39.8 µM (inactive). For the same molecule, the GI50 (ACHN) was 43.5 µM (inactive), the GI50 (Malme-3M) was > 100 µM (inactive) and the GI50 (SK-MEL-2) was 65.3 µM (inactive). For the same molecule, the GI50 (OVCAR-5) was 46.1 µM (inactive), the GI50 (HL-60) was 38.2 µM (inactive) and the GI50 (SK-MEL-28) was > 100 µM (inactive). The GI50 (T47D) was 26.4 µM (inactive), the GI50 (HOP-62) was 61 µM (inactive) and the GI50 (K562) was 41.9 µM (inactive). For the same molecule, the GI50 (DU-145) was 36 µM (inactive), the GI50 (NCI-H226) was > 100 µM (inactive) and the GI50 (HCT-116) was 32.1 µM (inactive). The GI50 (HCT-15) was 31 µM, the GI50 (A549) was 53.7 µM (inactive) and the GI50 (KM12) was 32.4 µM (inactive). For the same molecule, the GI50 (SN12C) was 36.2 µM (inactive), the GI50 (PC-3) was 47.1 µM (inactive) and the GI50 (HCC 2998) was 43.4 µM (inactive). For the same molecule, the GI50 (MCF7) was 24 µM (inactive), the GI50 (SK-OV-3) was > 100 µM (inactive) and the GI50 (Hs-578T) was 36.5 µM (inactive). For the same molecule, the GI50 (CAKI-1) was 50.2 µM (inactive), the GI50 (EKVX) was 21.9 µM (inactive) and the GI50 (786-0) was 24.3 µM (inactive). For the same molecule, the GI50 (SF-539) was 37.6 µM (inactive), the GI50 (MDA-MB-231) was 49.3 µM (inactive) and the GI50 (NCI/ADR-RES) was 43.1 µM (inactive). For the same molecule, the GI50 (SK-MEL-5) was 40.8 µM (inactive), the GI50 (NCI-H23) was 60.4 µM (inactive) and the GI50 (NCI-H522) was 21.8 µM (inactive). The GI50 (OVCAR-3) was 34.5 µM (inactive), the GI50 (TK-10) was 74.1 µM (inactive) and the GI50 (MOLT-4) was 28.4 µM (inactive). The GI50 (RXF 393) was 31.6 µM (inactive), the GI50 (SR) was 42.1 µM (inactive) and the GI50 (OVCAR-8) was 39.6 µM (inactive). The GI50 (UO-31) was 22.1 µM (inactive), the GI50 (UACC-62) was 40.6 µM (inactive) and the GI50 (A498) was 42.2 µM (inactive). For the same molecule, the GI50 (U-251) was 33.8 µM (inactive), the GI50 (HOP-92) was 39.1 µM (inactive) and the GI50 (IGROV-1) was 22.6 µM (inactive). For the same molecule, the GI50 (SF-295) was 42.7 µM (inactive), the GI50 (SNB-75) was 22.9 µM (inactive) and the GI50 (COLO 205) was 67.8 µM (inactive). For the same molecule, the GI50 (SF-268) was 35.8 µM (inactive), the GI50 (MDA-N) was 31.5 µM (inactive) and the GI50 (LOX IMVI) was 34.2 µM (inactive). The GI50 (MDA-MB-435) was 27.5 µM (inactive), the GI50 (HT-29) was 32.4 µM (inactive) and the GI50 (OVCAR-4) was 46.2 µM (inactive). For the same molecule, the GI50 (SNB-19) was 35.9 µM (inactive), the GI50 (SW-620) was 30.5 µM (inactive) and the GI50 (CCRF-CEM) was 33 µM (inactive). The GI50 (M14) was 42.6 µM (inactive).

Source: ChEMBL document CHEMBL1201862, “PubChem BioAssay data set” (2004)
